Columns and labels:
Format in all cases: functional, organism-based
Conditions in all cases: Mus musculus
[1] = tested on: MC-38; assay: In Vivo antitumor effect on subcutaneously implanted C38 colon tumor in mice and examined by histopathology and compared with control.( - = <50% hemorrhagic response) at optimal dose of 750 (mg/kg)
[2] = tested on: MC-38; assay: In Vivo antitumor effect on subcutaneously implanted C38 colon tumor in mice and examined by histopathology and compared with control.( + = 50-90% hemorrhagic necrosis response) at optimal dose of 750 (mg/kg)
[3] = tested on: MC-38; assay: In Vivo antitumor effect on subcutaneously implanted C38 colon tumor in mice and examined by histopathology and compared with control.( + = 50-90% hemorrhagic necrosis response) at optimal dose of 500 (mg/kg)
[4] = tested on: MC-38; assay: In Vivo antitumor effect on subcutaneously implanted C38 colon tumor in mice and examined by histopathology and compared with control.( - = <50% hemorrhagic response) at optimal dose of 330 (mg/kg)
[5] = tested on: MC-38; assay: In Vivo antitumor effect on subcutaneously implanted C38 colon tumor in mice and examined by histopathology and compared with control.( - = <50% hemorrhagic response) at optimal dose of 500 (mg/kg)
[6] = tested on: MC-38; assay: In Vivo antitumor effect on subcutaneously implanted C38 colon tumor in mice and examined by histopathology and compared with control.( ++ = >90% hemorrhagic necrosis response) at optimal dose of 220 (mg/kg)
[7] = tested on: MC-38; assay: In Vivo antitumor effect on subcutaneously implanted C38 colon tumor in mice and examined by histopathology and compared with control.(+ = 50-90% hemorrhagic necrosis response) at optimal dose of 750 (mg/kg)

Row | SMILES | Activity [1] | further results
1 | O=C(O)Cc1cccc2c1Oc1ccccc1[S+]2[O-] (stereo unspecified) | <50% hemorrhagic response at optimal dose of 750 mg/kg | 
2 | O=C(O)Cc1cccc2cc3ccccc3cc12 |  | Activity [2]: 50-90% hemorrhagic necrosis response at optimal dose of 750 mg/kg
3 | O=C(O)Cc1cccc2c1oc1ccccc12 |  | Activity [3]: 50-90% hemorrhagic necrosis response at optimal dose of 500 mg/kg
4 | O=C(O)Cc1cccc2c1S(=O)(=O)c1ccccc1C2=O | <50% hemorrhagic response at optimal dose of 750 mg/kg | 
5 | O=C(O)Cc1cccc2c1Oc1ccccc1CC2=O | <50% hemorrhagic response at optimal dose of 750 mg/kg | 
6 | O=C(O)Cc1cccc2c1Oc1ccccc1S2 |  | Activity [4]: <50% hemorrhagic response at optimal dose of 330 mg/kg
7 | O=C(O)Cc1cccc2c1Oc1ccccc1C2 |  | Activity [5]: <50% hemorrhagic response at optimal dose of 500 mg/kg
8 | O=C(O)Cc1cccc2c(=O)c3ccccc3[s+]([O-])c12 (stereo unspecified) | <50% hemorrhagic response at optimal dose of 750 mg/kg | 
9 | O=C(O)Cc1cccc2c1Oc1ccccc1S2(=O)=O | <50% hemorrhagic response at optimal dose of 750 mg/kg | 
10 | O=C(O)Cc1cccc2c1Oc1ccccc1C(=O)C2 |  | Activity [2]: 50-90% hemorrhagic necrosis response at optimal dose of 750 mg/kg
11 | O=C(O)Cc1cccc2c(=O)c3ccccc3sc12 |  | Activity [4]: <50% hemorrhagic response at optimal dose of 330 mg/kg
12 | O=C(O)Cc1cccc2oc3ccccc3c12 | <50% hemorrhagic response at optimal dose of 750 mg/kg | 
13 | O=C(O)Cc1cccc2c1Oc1ccccc1O2 | <50% hemorrhagic response at optimal dose of 750 mg/kg | 
14 | O=C(O)Cc1cccc2c(=O)c3ccccc3oc12 |  | Activity [6]: >90% hemorrhagic necrosis response at optimal dose of 220 mg/kg
15 | O=C(O)Cc1cccc2nc3ccccc3nc12 | <50% hemorrhagic response at optimal dose of 750 mg/kg | 
16 | O=C(O)Cc1cccc2c1C(=O)c1ccccc1C2=O |  | Activity [7]: 50-90% hemorrhagic necrosis response at optimal dose of 750 mg/kg

— ChEMBL document CHEMBL1125227, “Potential antitumor agents. 62. Structure-activity relationships for tricyclic compounds related to the colon tumor active drug 9-oxo-9H-xanthene-4-acetic acid” (J Med Chem, 1991)
